pIC50: −log10 of the molar value.

Experiment [1] concerns the target T1, microsomal triglyceride transfer protein (MTP) (Mesocricetus auratus, UniProt P55158).
T1 construct: The supernatant comprising the soluble MTP is dialysed against Tris/HCl 150 mM; from tissue; host or cells: golden hamster liver microsomes, deoxycholate-solubilised supernatant, dialysed
T1 sequence (P55158 19-895): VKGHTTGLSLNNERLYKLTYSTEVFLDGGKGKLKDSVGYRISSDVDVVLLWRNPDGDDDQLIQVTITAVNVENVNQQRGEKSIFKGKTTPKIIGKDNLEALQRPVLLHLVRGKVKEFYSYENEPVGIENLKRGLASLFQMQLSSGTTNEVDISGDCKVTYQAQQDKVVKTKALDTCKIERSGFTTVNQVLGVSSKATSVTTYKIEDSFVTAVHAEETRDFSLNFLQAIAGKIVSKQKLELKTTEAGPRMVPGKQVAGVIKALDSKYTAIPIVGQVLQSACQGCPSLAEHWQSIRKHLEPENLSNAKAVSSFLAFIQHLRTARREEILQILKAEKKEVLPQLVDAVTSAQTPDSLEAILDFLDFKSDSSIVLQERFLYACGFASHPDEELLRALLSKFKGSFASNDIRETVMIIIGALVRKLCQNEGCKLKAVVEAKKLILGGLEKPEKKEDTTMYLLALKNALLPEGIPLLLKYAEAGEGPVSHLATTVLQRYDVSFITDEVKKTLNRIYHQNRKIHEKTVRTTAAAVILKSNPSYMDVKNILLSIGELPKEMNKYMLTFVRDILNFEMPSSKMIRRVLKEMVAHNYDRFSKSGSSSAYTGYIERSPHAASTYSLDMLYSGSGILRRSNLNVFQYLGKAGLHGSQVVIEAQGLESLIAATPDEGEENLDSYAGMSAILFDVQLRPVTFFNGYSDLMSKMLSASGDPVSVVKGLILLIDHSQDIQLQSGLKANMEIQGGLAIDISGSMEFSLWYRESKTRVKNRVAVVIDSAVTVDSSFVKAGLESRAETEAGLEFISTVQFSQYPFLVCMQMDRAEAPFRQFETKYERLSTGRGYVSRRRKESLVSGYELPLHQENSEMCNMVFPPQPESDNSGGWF
The experiment in a line: Inhibition of MTP activity: transfer of [3H]-triolein from donor liposomes to biotinylated LDL, SPA. The experiment is classed as biochemical. The conditions noted are these: MTP from golden hamster liver; incubation 18-24 hours at 37° C.; read-out: IC50, concentration that allows a 50% inhibition of MTP. The method in brief: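 Soluble MTP was extracted with deoxycholate from golden hamster liver microsomes. It was incubated with [3H]-triolein/phosphatidylcholine donor liposomes, biotinylated LDL acceptors and compound in DMSO in HEPES/NaCl/BSA buffer, pH 7.4, for 18-24 h at 37° C. Transfer was read with streptavidin SPA beads, and IC50 was taken as 50% inhibition of transfer.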

Experiment [2] relates to apo B secretion in HepG2 cells. Nature of the experiment: Secretion of apo B in the HepG2 human cell line (sandwich-ELISA). The experiment is classed as cell-based. Particulars: 24 hours incubation, culture supernatant, read-out: IC50, concentration that produces a 50% inhibition of apo B secretion in the HepG2 cells. The procedure:
Analysis of the Secretion of apo B in the HepG2 Human Cell Line:
The activity of a compound according to the invention can be evaluated by measuring the inhibition of apo B secretion in HepG2 cells.
The HepG2 cells (ECACC—No. 85011430) are used as model in the study of the in vitro hepatic secretion of lipoproteins (Dixon J. and Ginsberg H., J., Lipid. Res., 1993, 34, 167-179).
The HepG2 cells are cultured in Dulbecco's modified Eagle's medium comprising 10% foetal calf serum (DMEM and FBS—Gibco) in 96-well plates under an atmosphere of 5% carbon dioxide for 24 hours (about 70% confluence).
The test compounds are dissolved at a concentration of 2 or 10 mM in dimethyl sulfoxide (DMSO). Serial dilutions (1:3.16) are made in DMSO and are added (1:200—Robot Multimek Beckman) to the growth medium (200 μL) and then finally incubated for 24 hours in the various wells containing the HepG2 cells.
The 24-hour culture supernatant diluted to 1:5 (phosphate-buffered saline:PBS comprising 1% bovine serum albumin) is tested according to a sandwich-ELISA method specific for human apo B.
The results are expressed in terms of IC50, i.e. the concentration that produces a 50% inhibition of apo B secretion in the HepG2 cells.
(An ELISA detects its analyte on a solid surface through an enzyme-linked reagent.)

For the compound `CCCCCCNC(=O)N1CCC(Oc2cccc(NC(=O)c3cccc(C)c3-c3ccc(OC(F)(F)F)cc3)c2)CC1` [Example 41, N-hexyl-4-[3-[[[6-methyl-4′-(trifluorometh-oxy)[1,1′-biphenyl]-2-yl]carbonyl]amino]-phenoxy]-1-piperidinecarboxamide], the pIC50 in experiment [1] is 7.34; in experiment [2] it was 7.48.

For the compound `CCCCOC(=O)CNC(=O)N1CCC(Oc2cccc(NC(=O)c3cccc(C)c3-c3ccc(OC(F)(F)F)cc3)c2)CC1` [Example 44, butyl N-[[4-[3-[[[6-methyl-4′-(trifluorometh-oxy)[1,1′-biphenyl]-2-yl]carbonyl]amino]-phenoxy]-1-piperidinyl]carbonyl]glycinate], the pIC50 in experiment [1] is 6.77; in experiment [2] it was 8.13.

For the compound `COc1ccc(CNC(=O)N2CCC(Oc3cccc(NC(=O)c4cccc(C)c4-c4ccc(OC(F)(F)F)cc4)c3)CC2)cc1` [Example 52, N-[(4-methoxyphenyl)methyl]-4-[3-[[[6-methyl-4′-(trifluoromethoxy)[1,1′-biphenyl]-2-yl]carbonyl]amino]phenoxy]-1-piperidinecarboxamide], the pIC50 in experiment [1] is 6.71; in experiment [2], 7.18.

With `COC(=O)c1ccc(NC(=O)N2CCC(Oc3cccc(NC(=O)c4cccc(C)c4-c4ccc(OC(F)(F)F)cc4)c3)CC2)cc1` [Example 55, methyl 4-[[[4-[3-[[[6-methyl-4′-(trifluoro-methoxy)[1,1′-biphenyl]-2-yl]carbonyl]-amino]phenoxy]-1-piperidinyl]carbonyl]-amino]benzoate], the pIC50 in experiment [1] is 6.68; in experiment [2], 7.33.

For the compound `Cc1cccc(C(=O)Nc2cccc(OC3CCN(C(=O)Nc4ccc5c(c4)OCO5)CC3)c2)c1-c1ccc(OC(F)(F)F)cc1` [Example 56, N-1,3-benzodioxol-5-yl-4-[3-[[[6-methyl-4′-(trifluoromethoxy)[1,1′-biphenyl]-2-yl]-carbonyl]amino]phenoxy]-1-piperidine-carboxamide], the pIC50 in experiment [1] was 6.84; in experiment [2] it was 7.42.

For `COC(=O)N1CCC(Oc2cccc(NC(=O)c3ccccc3-c3ccc(C(F)(F)F)cc3)c2)CC1` [Example 72, methyl 4-[3-[[[4′-(trifluoromethyl)[1,1′-biphenyl]-2-yl]carbonyl]amino]phenoxy]-1-piperidinecarboxylate], the figures for the pIC50 in experiment [1] and in experiment [2] were 7.37 and 8.34, respectively.

`COCCOC(=O)N1CCC(Oc2cccc(NC(=O)c3cccc(C)c3-c3ccc(OC(F)(F)F)cc3)c2)CC1` [Example 73, 2-methoxyethyl 4-[3-[[[6-methyl-4′-(trifluoromethoxy)[1,1′-biphenyl]-2-yl]-carbonyl]amino]phenoxy]-1-piperidine-carboxylate]: the pIC50 is 7.48 in experiment [1] and 8.80 in experiment [2].

Regarding `COCCOC(=O)N1CCC(Oc2cccc(NC(=O)c3ccccc3-c3ccc(OC(F)(F)F)cc3)c2)CC1` [Example 74], the pIC50 in experiment [1] was 6.96; in experiment [2], 7.08.

For `COCCOC(=O)N1CCC(Oc2cccc(NC(=O)c3ccccc3-c3ccc(C(F)(F)F)cc3)c2)CC1` [Example 75, 2-methoxyethyl 4-[3-[[[4′-(trifluoromethyl)-[1,1′-biphenyl]-2-yl]carbonyl]amino]-phenoxy]-1 piperidinecarboxylate], the pIC50 in experiment [1] is 6.88; in experiment [2] it was 7.40.

Regarding `COc1ccc(C(=O)N2CCC(Oc3cccc(NC(=O)c4cccc(C)c4-c4ccc(OC(F)(F)F)cc4)c3)CC2)cc1` [Example 98, N-[3-[[1-(4-methoxybenzoyl)-4-piperidin-yl]oxy]phenyl]-6-methyl-4′-(trifluorometh-oxy)[1,1′-biphenyl]-2-carboxamide], the results for the pIC50 in experiment [1] and in experiment [2] were 7.00 and 7.17, respectively.

In the case of `Cc1cccc(C(=O)Nc2cccc(OC3CCN(C(=O)c4ccno4)CC3)c2)c1-c1ccc(OC(F)(F)F)cc1` [Example 100, N-[3-[[1-(5-isoxazolylcarbonyl)-4-piperi-dinyl]oxy]phenyl]-6-methyl-4′-(trifluoro-methoxy)[1,1′-biphenyl]-2-carboxamide], the pIC50 is 6.86 in experiment [1] and 7.27 in experiment [2].

In the case of `COc1ccc(CC(=O)N2CCC(Oc3cccc(NC(=O)c4cccc(C)c4-c4ccc(OC(F)(F)F)cc4)c3)CC2)cc1` [Example 101, N-[3-[[1-[2-(4-methoxyphenyl)acetyl]-4-piperidinyl]oxy]phenyl]-6-methyl-4′-(trifluoromethoxy)[1,1′-biphenyl]-2-carboxamide], the figures for the pIC50 in experiment [1] and in experiment [2] were 6.80 and 7.03, respectively.

As for `CC(=O)OCC(=O)N1CCC(Oc2cccc(NC(=O)c3cccc(C)c3-c3ccc(OC(F)(F)F)cc3)c2)CC1` [Example 102, N-[3-[[1-[2-(acetyloxy)acetyl]-4-piperidin-yl]oxy]phenyl]-6-methyl-4′-(trifluorometh-oxy)[1,1′-biphenyl]-2-carboxamide], the figures for the pIC50 in experiment [1] and in experiment [2] were 6.67 and 7.59, respectively.

For the compound `COc1ccc(C(=O)N2CCC(Oc3cccc(NC(=O)c4cccc(C)c4-c4ccc(OC(F)(F)F)cc4)c3)CC2)cc1OC` [Example 103], the figures for the pIC50 in experiment [1] and in experiment [2] were 6.89 and 7.16, respectively.

Turning to `C/C=C/C(=O)N1CCC(Oc2cccc(NC(=O)c3cccc(C)c3-c3ccc(OC(F)(F)F)cc3)c2)CC1` [Example 128, 6-methyl-N-[3-[[1-[(2E)-1-oxo-2-butenyl]-4-piperidinyl]oxy]phenyl]-4′-(trifluorometh-oxy)[1,1′-biphenyl]-2-carboxamide], the pIC50 in experiment [1] is 7.00; in experiment [2] it was 7.65.

Regarding `Cc1cccc(C(=O)Nc2cccc(OC3CCN(C(=O)C(C)C)CC3)c2)c1-c1ccc(OC(F)(F)F)cc1` [Example 142, 6-methyl-N-[3-[[1-(2-methyl-1-oxopropyl)-4-piperidinyl]oxy]phenyl]-4′-(trifluorometh-oxy)[1,1′-biphenyl]-2-carboxamide], the pIC50 in experiment [1] is 6.78; in experiment [2] it was 7.14.

The record behind these values is patent publication US7723358B2, “Aroyl-O-piperidine derivatives for the treatment of diabetes-related problems” (Merck Patent GmbH, priority 2004, dated 2010).
